The values below come from patent US20250388602A1 (Genase Therapeutics B.V., priority 2022, published 2025).

A short description of data set [1]: in vitro. Particulars: for HLM % remaining: % remaining at 60 min, 1 μM; for half-life at 1 μM: both, human. The procedure:
Human Liver Microsomal metabolic stability: The microsomal metabolic stability assay utilized pooled human liver microsomes (mixed gender, BD Gentest), with supplemented cofactors NADPH and UDPGA (Solarbio S&T Co., LTD). Two separate experiments were performed as follows: • a) With cofactors (NADPH & UDPGA): 25 μL of 10 mM NADPH and 25 μL of 20 mM UDPGA were added to 197.5 μL of reaction solution (phosphate buffer (final concentration in assay 100 mM), MgCl2 (final concentration in assay (5 mM)), alamethacin (final concentration in assay 0.025 mg/mL) and microsomes (final concentration in assay 0.5 mg/mL). • b) Without cofactors (NADPH & UDPGA): 50 μL of H2O was added to 197.5 μL of reaction solution.
The mixture was pre-warmed at 37° C. for 10 minutes. The reaction was started with the addition of 2.5 μL of 100 μM control compound or test compound solutions. Diclofenac was used as positive control in this study. The final concentration of control compound and test compounds was 1 μM. Aliquots of 25 μL were taken from the reaction solution at 0.5, 5, 15, 30 and 60 minutes. The reaction was stopped by the addition of 5 volumes of cold acetonitrile containing internal standards. Samples were centrifuged at 3,220 g for 40 minutes. An aliquot of 100 μL of the supernatant was mixed with 100 μL of ultra-pure H2O and then used for LC-MS/MS analysis. Peak areas were determined from extracted ion chromatograms. Percent parent remaining was calculated from the area ratio of test compound. The slope value was determined by linear regression of the natural logarithm of percent parent remaining versus incubation time curve.
(§1) Peak areas were determined from extracted ion chromatograms to determine the in vitro half-life (t½) of parent compound by regression analysis of the percent parent disappearance vs. time curve. The in vitro half-life (in vitro t½) was determined from the slope value (in vitro t½=−0.693/k). All calculations were carried out using Microsoft Excel.

The nature of data set [2]: in vitro. The note with it: for hHEPs % remaining: 1 μM. The procedure:
Human Hepatocyte metabolic stability: Human hepatocytes (X008000, BioIVT) were freshly thawed prior to the incubations with test compound. Hepatocytes were transferred to 50 mL conical tubes and centrifuged 10 min at 100 g. Thawing medium was removed and replaced by preheated (37° C.) incubation medium (William's E Medium supplemented with GlutaMAX), to yield a hepatocyte density ˜1.5×10^6 cells/mL. Cell viability was determined using AO/PI staining and hepatocytes were diluted using incubation medium to a working density of 0.5×10^6 viable cells/mL. 198 μL of hepatocytes were added into each well of a 96-well plate and placed in the incubator to allow the hepatocytes to warm for 10 minutes. 2 μL test compound or positive control was placed into respective wells of the 96-well plate (final concentration test compound 1 μM) to start the reaction. The plate was returned to the incubator and 25 μL aliquots of the well contents were removed at time points of 0, 15, 30, 60, 90 and 120 minutes. The aliquots were mixed with 6 volumes (150 μL) of acetonitrile containing internal standards (100 nM alprazolam, 200 nM caffeine, and 100 nM tolbutamide) to terminate the reaction. The plate was centrifuged for 20 minutes at 3,200 g. Aliquots of 150 μL of the supernatants were used for LC/MS/MS analysis. All incubations were performed in duplicate.
as §1

The next data set has as its target recombinant human DHODH (Homo sapiens (Human), UniProt Q02127). As to the kind of experiment: DHODH enzyme assay (Assay A), DCIP absorbance. Type of data set: biochemical. Particulars: bins ≥10 nM-<100 nM and <10 nM; read-out: IC50 DHODH inhibition activity.
In a further data set the test system is MOLM-13 cells. Kind of data set: MOLM-13 cell viability (Assay B), Cell Titer-Glo. Type of data set: cell-based. The note with it: Homo sapiens, read-out: IC50 MOLM13 inhibition activity. A digest of the protocol: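 Cells at 1,000 per well in RPMI/10% FBS were exposed to compound (10E-5 to 6E-12 M), with or without 100 μM uridine, for 72 h. Viability was read by CellTiter-Glo luminescence. Duplicates were run, and potency was taken from two independent experiments.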
For orientation: ATP-based viability assays read luminescence as a measure of living cells.

The mark [3] stands for this setting: MOLM-13, 72 hours, bins ≥10 nM-<100 nM and <10 nM.

The structures appear in SMILES notation. Like-named read-outs stand apart in the source and are kept apart here. Bounds are passed on as bounds.

By half-life is commonly meant the time needed for the level to fall by half in the phase considered. Higher therefore signals slow loss. As a reminder, the IC50 is the concentration that gives 50% inhibition.

Chain of recombinant human DHODH (Q02127 whole entry): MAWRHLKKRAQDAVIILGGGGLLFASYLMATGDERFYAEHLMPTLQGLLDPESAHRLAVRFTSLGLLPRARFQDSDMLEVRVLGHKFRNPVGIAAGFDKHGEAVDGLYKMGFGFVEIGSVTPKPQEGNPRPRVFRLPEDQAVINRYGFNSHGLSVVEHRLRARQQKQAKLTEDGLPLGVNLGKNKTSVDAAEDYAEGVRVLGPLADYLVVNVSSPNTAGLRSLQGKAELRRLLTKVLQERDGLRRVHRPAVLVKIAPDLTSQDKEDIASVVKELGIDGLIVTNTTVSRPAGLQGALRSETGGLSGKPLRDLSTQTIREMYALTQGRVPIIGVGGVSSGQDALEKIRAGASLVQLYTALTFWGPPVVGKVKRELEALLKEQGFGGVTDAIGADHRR

Regarding `O=C(N[C@@H]1COCc2c1cnn2-c1ccccc1Cl)c1ncn2c1CCCC2` [Ex-51, (S)—N-(1-(2-chlorophenyl)-1,4,5,7-tetrahydropyrano[3,4-c]pyrazol-4-yl)-5,6,7,8-tetrahydroimidazo[1,5-a]pyridine-1-carboxamide], the HLM % remaining in “in vitro [1]” is 85%. Moreover, the half-life at 1 μM in “in vitro [1]” (pooled liver microsomes) was 356 min; in the data set “in vitro [2]” (human, hepatocytes), > 600 min. Besides, the hHEPs % remaining in “in vitro [2]” (% remaining at 120 min) is given as 100%. The IC50 on recombinant human DHODH was 10 to 100 nM; with MOLM-13 cells (setting [3]), < 10 nM.
In the data set “in vitro [1]”, `Cc1ccccc1-n1ncc2c1COC[C@H]2NC(=O)c1ncn2c1CCCC2` [Ex-52, (S)—N-(1-(o-tolyl)-1,4,5,7-tetrahydropyrano[3,4-c]pyrazol-4-yl)-5,6,7,8-tetrahydroimidazo[1,5-a]pyridine-1-carboxamide] yielded an HLM % remaining of 84%. Besides, the half-life at 1 μM in “in vitro [1]” (pooled liver microsomes) is 271 min; in the data set “in vitro [2]” (human, hepatocytes), > 600 min. The compound further displayed a hHEPs % remaining in the data set “in vitro [2]” (human, hepatocytes, 2 h) of 100%. Also, the IC50 on recombinant human DHODH and in the data set on MOLM-13 cells (setting [3]) was 10 to 100 nM in each case.
Turning to `Cc1ccc(Cl)c(-n2ncc3c2COC[C@H]3NC(=O)c2ncn3c2CCCC3)c1` [Ex-53, (S)—N-(1-(2-chloro-5-methylphenyl)-1,4,5,7-tetrahydropyrano[3,4-c]pyrazol-4-yl)-5,6,7,8-tetrahydroimidazo[1,5-a]pyridine-1-carboxamide], in “in vitro [1]”, the HLM % remaining was found to be 96%. The half-life at 1 μM in the data set “in vitro [1]” (pooled liver microsomes) was > 365 min; in the data set “in vitro [2]” (human, hepatocytes) it was > 600 min. In the data set “in vitro [2]” (% remaining at 120 min), this compound yielded a hHEPs % remaining of 99%. In addition, the IC50 at recombinant human DHODH and in the data set with MOLM-13 cells (setting [3]) was 10 to 100 nM throughout.
`COc1ccccc1-n1ncc2c1COC[C@H]2NC(=O)c1ncn2c1CCCC2` [Ex-54, (S)—N-(1-(2-methoxyphenyl)-1,4,5,7-tetrahydropyrano[3,4-c]pyrazol-4-yl)-5,6,7,8-tetrahydroimidazo[1,5-a]pyridine-1-carboxamide]: the HLM % remaining in “in vitro [1]” is recorded as 92%. The half-life at 1 μM in the data set “in vitro [1]” (pooled liver microsomes) was > 365 min; in “in vitro [2]” (human, hepatocytes), > 600 min. The compound further had a hHEPs % remaining in the data set “in vitro [2]” (% remaining at 120 min) of 100%. The IC50 at recombinant human DHODH and in the data set with MOLM-13 cells (setting [3]) was 10 to 100 nM throughout.
The compound `O=C(N[C@@H]1COCc2c1cnn2-c1ccccc1C(F)(F)F)c1ncn2c1CCCC2` [Ex-55, (S)—N-(1-(2-(trifluoromethyl)phenyl)-1,4,5,7-tetrahydropyrano[3,4-c]pyrazol-4-yl)-5,6,7,8-tetrahydroimidazo[1,5-a]pyridine-1-carboxamide] returned an HLM % remaining in “in vitro [1]” of 94%. Further, the half-life at 1 μM was > 365 min in the data set “in vitro [1]” (pooled liver microsomes) and > 600 min in “in vitro [2]” (human, hepatocytes). In “in vitro [2]” (human, hepatocytes, 2 h), the hHEPs % remaining was determined as 100%. Also, the IC50 on recombinant human DHODH and with MOLM-13 cells (setting [3]) was 10 to 100 nM in each case.
`Cc1cccc(F)c1-n1ncc2c1COC[C@H]2NC(=O)c1ncn2c1CCCC2` [Ex-58, (S)—N-(1-(2-fluoro-6-methylphenyl)-1,4,5,7-tetrahydropyrano[3,4-c]pyrazol-4-yl)-5,6,7,8-tetrahydroimidazo[1,5-a]pyridine-1-carboxamide]: in “in vitro [1]”, the HLM % remaining worked out at 87%. Also, the half-life at 1 μM in “in vitro [1]” (pooled liver microsomes) is 275 min; in the data set “in vitro [2]” (human, hepatocytes) it was > 600 min. In the data set “in vitro [2]” (% remaining at 120 min), this compound came in with a hHEPs % remaining of 100%. For the same compound, the IC50 at recombinant human DHODH and with MOLM-13 cells (setting [3]) was 10 to 100 nM each time.
The compound `O=C(N[C@@H]1COCc2c1cnn2-c1c(F)cccc1F)c1ncn2c1CCCC2` [Ex-59, (S)—N-(1-(2,6-difluorophenyl)-1,4,5,7-tetrahydropyrano[3,4-c]pyrazol-4-yl)-5,6,7,8-tetrahydroimidazo[1,5-a]pyridine-1-carboxamide] had an HLM % remaining in the data set “in vitro [1]” of 91%. The half-life at 1 μM in the data set “in vitro [1]” (pooled liver microsomes) is > 365 min; in the data set “in vitro [2]” (human, hepatocytes), > 600 min. In “in vitro [2]” (% remaining at 120 min), this compound displayed a hHEPs % remaining of 100%. Moreover, the IC50 on recombinant human DHODH and with MOLM-13 cells (setting [3]) was 10 to 100 nM in each case.
For `COc1cccc(C)c1-n1ncc2c1COC[C@H]2NC(=O)c1ncn2c1CCCC2` [Ex-61, (S)—N-(1-(2-methoxy-6-methylphenyl)-1,4,5,7-tetrahydropyrano[3,4-c]pyrazol-4-yl)-5,6,7,8-tetrahydroimidazo[1,5-a]pyridine-1-carboxamide], the HLM % remaining in the data set “in vitro [1]” worked out at 94%. Also, the half-life at 1 μM is > 365 min in the data set “in vitro [1]” (pooled liver microsomes) and > 600 min in the data set “in vitro [2]” (human, hepatocytes). Also, the hHEPs % remaining in the data set “in vitro [2]” (% remaining at 120 min) stood at 100%. Moreover, the IC50 at recombinant human DHODH and in the data set on MOLM-13 cells (setting [3]) was 10 to 100 nM each time.
The compound `CC(C)OC(=O)c1cccc(-n2ncc3c2COC[C@H]3NC(=O)c2ncn3c2CCCC3)c1Cl` [Ex-69, Isopropyl (S)-2-chloro-3-(4-(5,6,7,8-tetrahydroimidazo[1,5-a]pyridine-1-carboxamido)-4,7-dihydropyrano[3,4-c]pyrazol-1(5H)-yl)benzoate] gave an HLM % remaining in the data set “in vitro [1]” of 0.14%. The half-life at 1 μM came out at 7.3 min in the data set “in vitro [1]” (microsomes) and 4.6 min in “in vitro [2]” (human, hepatocytes). Moreover, in “in vitro [2]” (% remaining at 120 min), the hHEPs % remaining result is listed as “BLOD@”. The 50% inhibitory concentration (IC50) on recombinant human DHODH is < 10 nM; in the data set with MOLM-13 cells (MOLM-13, 72 h), < 10 nM.
